The record followed here is PubChem BioAssay AID220 (DTP/NCI, 2004).

Several values for one entry are separate records, joined by “and”; a condition that tells them apart may be missing. Equal values may be shown once. Inconclusive results are not listed.

In this test the test system is CD8F1 mice, subcutaneous mammary adenocarcinoma, T/C%. The test can be described thus: NCI In Vivo Anticancer Drug Screen. Data for tumor model Mammary Adenocarcinoma CD8F1 (subcutaneous) in CD8F1. The conditions noted are these: higher = larger tumour. The method, then: The antitumor activity of compounds was measured in mice bearing transplantable tumors. Survival or tumor size were measured and the results are expressed as the measurement made in the treated group (T) divided by the measurement made in the vehicle treated control group (C). The tumor model used in this assay is Mammary Adenocarcinoma CD8F1 (subcutaneous) in CD8F1

Where [1] appears, read: endpoint: mean tumor weight, dose: 12.5 mg/kg/injection, schedule: Q07DX006 (ip), vehicle: saline with Tween-80.
Where [2] appears, read: endpoint: mean tumor weight, dose: 25.0 mg/kg/injection, schedule: Q07DX006 (ip), vehicle: saline with Tween-80.
Where [3] appears, read: endpoint: mean tumor weight, dose: 50.0 mg/kg/injection, schedule: Q07DX006 (ip), vehicle: saline with Tween-80.
The mark [4] stands for this setting: endpoint: median tumor weight change, dose: 62.5 mg/kg/injection, schedule: Q01DX001 (ip), vehicle: saline with Tween-80.
[5] abbreviates: endpoint: median tumor weight change, dose: 125.0 mg/kg/injection, schedule: Q01DX001 (ip), vehicle: saline with Tween-80.
[6] abbreviates: endpoint: median tumor weight change, dose: 250.0 mg/kg/injection, schedule: Q01DX001 (ip), vehicle: saline with Tween-80.
Setting [7] is: endpoint: median tumor weight (est.), dose: 25.0 mg/kg/injection, schedule: Q07DX005 (ip), vehicle: Klucel (hydroxypropylcellulose) (HPC).
Where [8] appears, read: endpoint: median tumor weight (est.), dose: 100.0 mg/kg/injection, schedule: Q07DX005 (ip), vehicle: Klucel (hydroxypropylcellulose) (HPC).
[9] abbreviates: endpoint: median tumor weight (est.), dose: 200.0 mg/kg/injection, schedule: Q07DX005 (ip), vehicle: Klucel (hydroxypropylcellulose) (HPC).
[10] abbreviates: endpoint: median tumor weight (est.), dose: 400.0 mg/kg/injection, schedule: Q07DX005 (ip), vehicle: Klucel (hydroxypropylcellulose) (HPC).

`CCC[P+](c1ccccc1)(c1ccccc1)c1ccccc1`: the T/C (endpoint: mean tumor weight, dose: 3.12 mg/kg/injection, schedule: Q07DX006 (ip), vehicle: saline with Tween-80) was 211 % of control; the T/C (endpoint: mean tumor weight, dose: 6.25 mg/kg/injection, schedule: Q07DX006 (ip), vehicle: saline with Tween-80) was 241 % of control; the T/C under setting [1] was 40 % of control; the T/C under setting [2] is 72 % of control; the T/C under setting [3] was 38 % of control; the T/C (endpoint: median tumor weight (est.), dose: 3.12 mg/kg/injection, schedule: Q07DX005 (ip), vehicle: saline with Tween-80) is 83 % of control. Moreover, the T/C is, setting by setting: (endpoint: median tumor weight (est.), dose: 6.25 mg/kg/injection, schedule: Q07DX004 (ip), vehicle: saline with Tween-80) 112 % of control; (endpoint: median tumor weight (est.), dose: 6.25 mg/kg/injection, schedule: Q07DX005 (ip), vehicle: saline with Tween-80) 72 % of control; (endpoint: median tumor weight (est.), dose: 12.5 mg/kg/injection, schedule: Q07DX004 (ip), vehicle: saline with Tween-80) 172 % of control; (endpoint: median tumor weight (est.), dose: 12.5 mg/kg/injection, schedule: Q07DX005 (ip), vehicle: saline with Tween-80) 73 % of control; (endpoint: median tumor weight (est.), dose: 25.0 mg/kg/injection, schedule: Q07DX004 (ip), vehicle: saline with Tween-80) 183 % of control; (endpoint: median tumor weight (est.), dose: 25.0 mg/kg/injection, schedule: Q07DX005 (ip), vehicle: saline with Tween-80) 34 % of control. For the same molecule, the T/C was 104 % of control (endpoint: median tumor weight (est.), dose: 50.0 mg/kg/injection, schedule: Q07DX004 (ip), vehicle: saline with Tween-80) and 30 % of control (endpoint: median tumor weight (est.), dose: 50.0 mg/kg/injection, schedule: Q07DX005 (ip), vehicle: saline with Tween-80).

Consider `NC(=S)N/N=C/c1ccc(OC(=O)COc2ccccc2)cn1`, for which the T/C (endpoint: mean tumor weight, dose: 12.5 mg/kg/injection, schedule: Q07DX005 (ip), vehicle: saline with Tween-80) was 99 % of control; the T/C under setting [1] was 96 % of control; the T/C (endpoint: mean tumor weight, dose: 25.0 mg/kg/injection, schedule: Q07DX005 (ip), vehicle: saline with Tween-80) was 89 % of control; the T/C under setting [2] is 106 % of control; the T/C (endpoint: mean tumor weight, dose: 50.0 mg/kg/injection, schedule: Q07DX005 (ip), vehicle: saline with Tween-80) was 86 % of control; the T/C under setting [3] is 83 % of control. Also, the T/C is, setting by setting: (endpoint: mean tumor weight, dose: 100.0 mg/kg/injection, schedule: Q07DX005 (ip), vehicle: saline with Tween-80) 52 % of control; (endpoint: mean tumor weight, dose: 100.0 mg/kg/injection, schedule: Q07DX006 (ip), vehicle: saline with Tween-80) 101 % of control; (endpoint: mean tumor weight, dose: 200.0 mg/kg/injection, schedule: Q07DX005 (ip), vehicle: saline with Tween-80) 65 % of control; (endpoint: mean tumor weight, dose: 200.0 mg/kg/injection, schedule: Q07DX006 (ip), vehicle: saline with Tween-80) 33 % of control.

For the molecule `COc1ccc2c(ccc3oc([N+](=O)[O-])cc32)c1`, the T/C was 77 % of control under setting [4]; 63 % of control under setting [5]; 76 % of control under setting [6]; 86 % of control (endpoint: median tumor weight change, dose: 500.0 mg/kg/injection, schedule: Q01DX001 (ip), vehicle: saline with Tween-80); 56 % of control (endpoint: median tumor weight change, dose: 1000.0 mg/kg/injection, schedule: Q01DX001 (ip), vehicle: saline with Tween-80).

On to `Nc1ccn(C2OC(CO)C(O)C2O)c(=O)n1` (stereo not given), for which the T/C (endpoint: mean tumor weight, dose: 18.75 mg/kg/injection, schedule: Q01DX009 (ip), vehicle: saline) is 84 % of control; the T/C (endpoint: mean tumor weight, dose: 25.0 mg/kg/injection, schedule: Q07DX007 (ip), vehicle: saline) was 101 % of control; the T/C (endpoint: mean tumor weight, dose: 37.5 mg/kg/injection, schedule: Q01DX009 (ip), vehicle: saline) is 39 % of control; the T/C (endpoint: mean tumor weight, dose: 75.0 mg/kg/injection, schedule: Q07DX005 (ip), vehicle: saline) is 89 % of control; the T/C (endpoint: mean tumor weight, dose: 75.0 mg/kg/injection, schedule: Q07DX007 (ip), vehicle: saline) is 98 % of control; the T/C (endpoint: mean tumor weight, dose: 150.0 mg/kg/injection, schedule: Q07DX005 (ip), vehicle: saline) is 89 % of control. For the same molecule, the T/C is, setting by setting: (endpoint: mean tumor weight, dose: 300.0 mg/kg/injection, schedule: Q07DX005 (ip), vehicle: saline) 100 % of control; (endpoint: median tumor weight (est.), dose: 75.0 mg/kg/injection, schedule: Q04DX005 (ip), vehicle: saline) 31 % of control and 55 % of control; (endpoint: median tumor weight (est.), dose: 130.0 mg/kg/injection, schedule: Q07DX005 (ip), vehicle: saline) 79 % of control; (endpoint: median tumor weight (est.), dose: 150.0 mg/kg/injection, schedule: Q04DX005 (ip), vehicle: saline) 50 % of control and 53 % of control; (endpoint: median tumor weight (est.), dose: 150.0 mg/kg/injection, schedule: Q07DX004 (ip), vehicle: saline) 22 % of control and 41 % of control; (endpoint: median tumor weight (est.), dose: 200.0 mg/kg/injection, schedule: Q07DX005 (ip), vehicle: saline) 73 % of control. In addition, the T/C by setting is: (endpoint: median tumor weight (est.), dose: 300.0 mg/kg/injection, schedule: Q07DX005 (ip), vehicle: saline) 48 % of control; (endpoint: median tumor weight (est.), dose: 450.0 mg/kg/injection, schedule: Q07DX005 (ip), vehicle: saline) 75 % of control; (endpoint: median tumor weight (est.), dose: 600.0 mg/kg/injection, schedule: Q07DX005 (ip), vehicle: saline with Tween-80) 34 % of control and 45 % of control; (endpoint: median tumor weight (est.), dose: 790.0 mg/kg/injection, schedule: Q01DX001 (ip), vehicle: saline) 74 % of control; (endpoint: median tumor weight (est.), dose: 1180.0 mg/kg/injection, schedule: Q01DX001 (ip), vehicle: saline) 54 % of control; (endpoint: median tumor weight (est.), dose: 1200.0 mg/kg/injection, schedule: Q07DX005 (ip), vehicle: saline with Tween-80) 6 % of control and 18 % of control. Further, the T/C is 54 % of control (endpoint: median tumor weight (est.), dose: 1750.0 mg/kg/injection, schedule: Q01DX001 (ip), vehicle: saline); 62 % of control (endpoint: median tumor weight (est.), dose: 2500.0 mg/kg/injection, schedule: Q01DX001 (ip), vehicle: saline); 48 % of control (endpoint: median tumor weight change, dose: 790.0 mg/kg/injection, schedule: Q01DX001 (ip), vehicle: water); 77 % of control (endpoint: median tumor weight change, dose: 1180.0 mg/kg/injection, schedule: Q01DX001 (ip), vehicle: water); 57 % of control (endpoint: median tumor weight change, dose: 1750.0 mg/kg/injection, schedule: Q01DX001 (ip), vehicle: water); 33 % of control (endpoint: median tumor weight change, dose: 2500.0 mg/kg/injection, schedule: Q01DX001 (ip), vehicle: water).

For `COc1cc(NCc2ccc3nc(N)nc(N)c3c2C)cc(OC)c1OC` (tested in a mixture with another compound), the T/C runs as follows: (endpoint: median tumor weight (est.), dose: 32.0 mg/kg/injection, schedule: Q04DX007 (ip), vehicle: water) 87 % of control; (endpoint: median tumor weight (est.), dose: 46.0 mg/kg/injection, schedule: Q07DX005 (ip), vehicle: water) 24 % of control; (endpoint: median tumor weight (est.), dose: 47.4 mg/kg/injection, schedule: Q04DX007 (ip), vehicle: water) 35 % of control; (endpoint: median tumor weight (est.), dose: 70.0 mg/kg/injection, schedule: Q07DX005 (ip), vehicle: water) 27 % of control; (endpoint: median tumor weight (est.), dose: 71.1 mg/kg/injection, schedule: Q04DX007 (ip), vehicle: water) 113 % of control; (endpoint: median tumor weight (est.), dose: 105.0 mg/kg/injection, schedule: Q07DX005 (ip), vehicle: water) 24 % of control. Besides, the T/C is 42 % of control (endpoint: median tumor weight (est.), dose: 106.7 mg/kg/injection, schedule: Q04DX007 (ip), vehicle: water); 13 % of control (endpoint: median tumor weight (est.), dose: 157.0 mg/kg/injection, schedule: Q07DX005 (ip), vehicle: water); 32 % of control (endpoint: median tumor weight (est.), dose: 160.0 mg/kg/injection, schedule: Q04DX007 (ip), vehicle: water).

On to `CC(C)(C)C1CCCCC1`, for which the T/C (endpoint: median tumor weight (est.), dose: 12.5 mg/kg/injection, schedule: Q07DX005 (ip), vehicle: Klucel (hydroxypropylcellulose) (HPC)) was 85 % of control; the T/C under setting [7] is 69 % of control; the T/C under setting [8] is 94 % of control; the T/C under setting [9] was 73 % of control; the T/C under setting [10] is 69 % of control.

With `O=c1ssc(=Nc2ccccc2)n1-c1ccccc1`, the T/C reads like this: under setting [7], 119 % of control; (endpoint: median tumor weight (est.), dose: 50.0 mg/kg/injection, schedule: Q07DX005 (ip), vehicle: Klucel (hydroxypropylcellulose) (HPC)) 90 % of control; under setting [8], 70 % of control; under setting [9], 65 % of control; under setting [10], 69 % of control.

Regarding `CCCCOCN(COCCCC)C12CC3CC(CC(C3)C1)C2`, the T/C is 122 % of control under setting [4], 79 % of control under setting [5] and 61 % of control under setting [6].
